# Data as given in US20200223837A1, “BENZOFURAN AMIDES AND HETEROAROMATIC ANALOGUES THEREOF FOR USE IN THERAPY” (European Molecular Biology Laboratory, priority 2017, published 2020).
# Tested on: EGR1 promoter
# Assay: EGR1 reporter assay (luciferase) in genomically engineered HeLa cell line
# Format: cell-based
# Settings: Homo sapiens; EGR1 reporter HeLa cells, luciferase activity after 24 hours with compound
# Excerpt: The compounds of the present invention can be characterized for their effect on expression of egr1 (early growth response protein 1) using an EGR1 reporter cell line.
# The HeLa cell line was genetically modified to provide a simple, robust and highly reproducible cell-based assay reporting the activity of an endogenous EGR1 promoter. In brief, a construct encoding EGFP and luciferase proteins, separated by a self-cleaving P2A peptide was inserted, using CRISPR, immediately downstream (3′) to the promoter of endogenous EGR1. Upon treatment with compounds, cells express EGFP and luciferase from EGR1 promoter, which can be readily detected either in live cells using microscopy or cytometry, or through detection of luciferase activity in cell lysates.
# To achieve stable genomic integration of an EGR1-promoter dual reporter, two plasmids were generated: one contained the reporter construct (eGFP-P2A-luciferase) flanked by homology arms that direct insertion into genomic DNA, by homologous recombination, of a break in genomic DNA generated by guide RNA targeted cleavage by Cas9 endonuclease. The gRNA expressing plasmid was based on px330 (56), into which a gRNA sequence that targets a break in gDNA close to the start codon of EGR1 was cloned. The left homology arm (encoding part of EGR1 promoter adjacent to its start codon) and right homology arm (encoding […] of start codon of EGR1) were cloned from gDNA using the following primers: […]
# The present compounds can be tested, e.g. by using a HeLa cell line carrying an EGR1 reporter construct which allows for expression of luciferase and eGFP (enhanced GFP) controlled by the EGR1 promoter. For this reporter cells are seeded in the wells of a 384 well microtiter plate at a density of 2000 cells per well in 48 μl of DMEM supplemented with 4.5 g/l glucose, 2 mM glutamine and 10% FCS and are incubated for 24 hours at 37° C. with 5% CO2 and 95% humidity. Then, an eleven point 1:3 serial dilution of each test compound, from an initial concentration of 100 μM, is prepared in DMSO and the dilutions are added to the cells in a volume of 2 μl per well. The cells are incubated for a further 24 hours, after which the luciferase activity of each well is determined by addition of 25 μl of luciferase substrate reaction mixture (Britelite™ plus, Perkin Elmer) and measuring the bioluminescence light output (EnVision Xcite plate reader, PerkinElmer).
# The compound of example 64 served as a positive control for this EGR1 reporter assay. The compound of example 64 had been identified in an initial high throughput screening campaign.
row,SMILES,EC50 [µM]
1,"CNC(=O)c1nc(NC(=O)Cc2coc3c(C)c(C)ccc23)sc1C(F)(F)F [Example 103, 2-(2-(6,7-dimethylbenzofuran-3-yl)acetamido)-N-methyl-5-(trifluoromethyl)thiazole-4-carboxamide]",10 to 100
2,"COc1ccc2c(CC(=O)Nc3nc(-c4ccc5c(c4)CCC(=O)N5)cs3)coc2c1 [Example 29, 2-(6-Methoxybenzofuran-3-yl)-N-[4-(2-oxo-3,4-dihydro-1H-quinolin-6-yl)thiazol-2-yl]acetamide]",0.01 to 10
3,"COc1ccc(-c2csc(NC(=O)Cc3coc4cc(C)ccc34)n2)cc1OC [Example 50, N-[4-(3,4-Dimethoxyphenyl)thiazol-2-yl]-2-(6-methylbenzofuran-3-yl)acetamide]",0.01 to 10
4,"CC(=O)NCCc1ccc(-c2csc(NC(=O)Cc3coc4cc(C)ccc34)n2)s1 [Example 28, N-[4-[5-(2-Acetamidoethyl)-2-thienyl]thiazol-2-yl]-2-(6-methylbenzofuran-3-yl)acetamide]",0.01 to 10
5,"COc1ccc2c(CC(=O)Nc3nc4c(s3)CCC4)coc2c1 [Example 54, N-(5,6-Dihydro-4H-cyclopenta[d]thiazol-2-yl)-2-(6-methoxybenzofuran-3-yl)acetamide]",0.01 to 10
6,"COc1c(C)ccc2c(CC(=O)Nc3ncc(C(F)(F)F)s3)coc12 [Example 97, 2-(7-Methoxy-6-methyl-benzofuran-3-yl)-N-[5-(trifluoromethyl)thiazol-2-yl]acetamide]",0.01 to 10
7,"O=C(Cc1coc2cc3c(cc12)CCC3)NCCNc1ncc(CO)s1 [Example 80, 2-(6,7-Dihydro-5H-cyclopenta[f]benzofuran-3-yl)-N-[2-[[5-(hydroxymethyl)thiazol-2-yl]amino]ethyl]acetamide]",0.01 to 10
8,"COc1ccc2c(CC(=O)Nc3nccs3)coc2c1 [Example 2, 2-(6-Methoxybenzofuran-3-yl)-N-thiazol-2-yl-acetamide]",10 to 100
9,"CCc1ccc2c(CC(=O)Nc3nccs3)coc2c1 [Example 20, 2-(6-Ethylbenzofuran-3-yl)-N-thiazol-2-yl-acetamide]",10 to 100
10,"Cc1ccc2c(CC(=O)Nc3nc(-c4ccc(C)o4)cs3)coc2c1 [Example 36, 2-(6-Methylbenzofuran-3-yl)-N-[4-(5-methyl-2-furyl)thiazol-2-yl]acetamide]",0.01 to 10
11,"COc1ccc2nc(NC(=O)Cc3coc4cc(C)ccc34)sc2c1 [Example 41, N-(6-Methoxy-1,3-benzothiazol-2-yl)-2-(6-methylbenzofuran-3-yl)acetamide]",0.01 to 10
12,"Cc1ccc2c(CC(=O)Nc3nc(-c4ccccn4)cs3)coc2c1 [Example 21, 2-(6-Methylbenzofuran-3-yl)-N-[4-(2-pyridyl)thiazol-2-yl]acetamide]",10 to 100
13,"Cc1ccc2c(CC(=O)Nc3ncc(C(F)(F)F)s3)coc2c1Cl [Example 83, 2-(7-Chloro-6-methyl-benzofuran-3-yl)-N-[5-(trifluoromethyl)thiazol-2-yl]acetamide]",0.01 to 10
14,"CC(=O)NCc1ccc(-c2csc(NC(=O)Cc3coc4cc(C)c(C(C)C)cc34)n2)o1 [Example 1, N-[4-[5-(Acetamidomethyl)-2-furyl]thiazol-2-yl]-2-(5-isopropyl-6-methyl-benzofuran-3-yl)acetamide]",10 to 100
15,"Cc1ccc2c(CC(=O)Nc3nc(C)cs3)coc2c1 [Example 33, 2-(6-Methylbenzofuran-3-yl)-N-(4-methylthiazol-2-yl)acetamide]",0.01 to 10
16,"O=C(Cc1coc2cc(Cl)ccc12)Nc1ncc(C(F)(F)F)s1 [Example 60, 2-(6-Chlorobenzofuran-3-yl)-N-[5-(trifluoromethyl)thiazol-2-yl]acetamide]",0.01 to 10
17,"CCc1ccc2c(CC(=O)Nc3nc(C)cs3)coc2c1 [Example 35, 2-(6-Ethylbenzofuran-3-yl)-N-(4-methylthiazol-2-yl)acetamide]",0.01 to 10
18,"COc1ccc2c(CC(=O)Nc3nc(-c4ccc(C5CCCCC5)cc4)cs3)coc2c1 [Example 76, N-[4-(4-Cyclohexylphenyl)thiazol-2-yl]-2-(6-methoxybenzofuran-3-yl)acetamide]",0.01 to 10
19,"COc1ccc2c(CC(=O)Nc3nc(-c4ccc(CCC(C)NC(C)=O)cc4)cs3)coc2c1 (stereo not drawn) [Example 51, N-[4-[4-(3-Acetamidobutyl)phenyl]thiazol-2-yl]-2-(6-methoxybenzofuran-3-yl)acetamide]",0.01 to 10
20,"COCc1cnc(NC(=O)Cc2coc3c(C)c(C)ccc23)s1 [Example 87, 2-(6,7-Dimethylbenzofuran-3-yl)-N-[5-(methoxymethyl)thiazol-2-yl]acetamide]",0.01 to 10
21,"COc1ccc2c(CC(=O)Nc3nc(-c4ccc(CNC(C)=O)o4)cs3)coc2c1 [Example 8, N-[4-[5-(Acetamidomethyl)-2-furyl]thiazol-2-yl]-2-(6-methoxybenzofuran-3-yl)acetamide]",10 to 100
22,"COc1ccc2c(CC(=O)Nc3nc(-c4cccs4)cs3)coc2c1 [Example 37, 2-(6-Methoxybenzofuran-3-yl)-N-[4-(2-thienyl)thiazol-2-yl]acetamide]",0.01 to 10
23,"O=C(Cc1coc2ccccc12)Nc1ncc(C(F)(F)F)s1 [Example 6, 2-(Benzofuran-3-yl)-N-[5-(trifluoromethyl)thiazol-2-yl]acetamide]",10 to 100

# The remaining lines, values ahead:
row,EC50 [µM],SMILES
1,0.01 to 10,"CCc1ccc2c(CC(=O)Nc3nc(-c4ccc(NC(C)=O)cc4)cs3)coc2c1 [Example 52, N-[4-(4-Acetamidophenyl)thiazol-2-yl]-2-(6-ethylbenzofuran-3-yl)acetamide]"
2,0.01 to 10,"Cc1cc2occ(CC(=O)N(c3ccc(SC(F)F)cc3)c3nc4ccccc4s3)c2cc1C(C)C [Example 81, N-(1,3-Benzothiazol-2-yl)-N-[4-(difluoromethylsulfanyl)phenyl]-2-(5-isopropyl-6-methyl-benzofuran-3-yl)acetamide]"
3,0.01 to 10,"O=C(Cc1coc2cc(Cl)ccc12)Nc1ncc(C(F)(F)F)[nH]1 [Example 38, 2-(6-Chlorobenzofuran-3-yl)-N-[5-(trifluoromethyl)-1H-imidazol-2-yl]acetamide]"
4,0.01 to 10,"COc1ccc2c(CC(=O)Nc3nc(-c4ccncc4)cs3)coc2c1 [Example 25, 2-(6-Methoxybenzofuran-3-yl)-N-[4-(4-pyridyl)thiazol-2-yl]acetamide]"
5,0.01 to 10,"Cc1cnc(NC(=O)Cc2coc3c(Cl)c(C)ccc23)s1 [Example 90, 2-(7-Chloro-6-methyl-benzofuran-3-yl)-N-(5-methylthiazol-2-yl)acetamide]"
6,0.01 to 10,"Cc1cnc(NC(=O)Cc2coc3c(C)c(C)ccc23)s1 [Example 88, 2-(6,7-Dimethylbenzofuran-3-yl)-N-(5-methylthiazol-2-yl)acetamide]"
7,0.01 to 10,COCc1cnc(NC(=O)Cc2coc3cc(Cl)ccc23)s1 [Example 56]
8,0.01 to 10,"O=C(Cc1coc2c(Cl)c(Cl)ccc12)Nc1ncc(C(F)(F)F)[nH]1 [Example 49, 2-(6,7-Dichlorobenzofuran-3-yl)-N-[5-(trifluoromethyl)-1H-imidazol-2-yl]acetamide]"
9,0.01 to 10,"Cc1ccc2c(CC(=O)Nc3ncc(C)s3)coc2c1 [Example 48, 2-(6-Methylbenzofuran-3-yl)-N-(5-methylthiazol-2-yl)acetamide]"
10,0.01 to 10,"COC(=O)c1cnc(NC(=O)Cc2coc3c(C)c(C)ccc23)s1 [Example 47, Methyl 2-[[2-(6,7-dimethylbenzofuran-3-yl)acetyl]amino]thiazole-5-carboxylate]"
11,0.01 to 10,"CC(=O)c1csc(NC(=O)Cc2coc3cc(C)ccc23)n1 [Example 24, N-(4-Acetylthiazol-2-yl)-2-(6-methylbenzofuran-3-yl)acetamide]"
12,0.01 to 10,"CCc1cnc(NC(=O)Cc2coc3c(C)c(C)ccc23)s1 [Example 98, 2-(6,7-Dimethylbenzofuran-3-yl)-N-(5-ethylthiazol-2-yl)acetamide]"
13,10 to 100,"CCc1ccc2c(CC(=O)Nc3nc(-c4ccccn4)cs3)coc2c1 [Example 5, 2-(6-Ethylbenzofuran-3-yl)-N-[4-(2-pyridyl)thiazol-2-yl]acetamide]"
14,0.01 to 10,"COCc1cnc(NC(=O)Cc2coc3c(Cl)c(Cl)ccc23)s1 [Example 93, 2-(6,7-Dichlorobenzofuran-3-yl)-N-[5-(methoxymethyl)thiazol-2-yl]acetamide]"
15,0.01 to 10,"COc1ccc2nc(NC(=O)Cc3coc4cc5c(cc34)CCC5)sc2c1 [Example 32, 2-(6,7-Dihydro-5H-cyclopenta[f]benzofuran-3-yl)-N-(6-methoxy-1,3-benzothiazol-2-yl)acetamide]"
16,10 to 100,"CCOC(=O)c1csc(NC(=O)Cc2coc3cc(C)ccc23)n1 [Example 13, Ethyl 2-[[2-(6-methylbenzofuran-3-yl)acetyl]amino]thiazole-4-carboxylate]"
